# Laboratory results reported in patent publication EP4700019A1, “CRYSTAL FORM OF 1,5-DIHYDRO-2,4-BENZODIAZEPINE-3-ONE DERIVATIVE CITRATE, PREPARATION METHOD, AND USE THEREOF” (priority 2023, dated 2024).
# Where a name gives a salt, the structure may show the parent alone. Read-outs that look alike come from different tables or passages of the source.
# Assays:
# [1] = Stability test (high humidity, light, high temperature, high temperature stress; HPLC); format: physicochemical
# Method: These samples were stored under two different conditions: (1) relative humidity of 92.5% at 25°C, and (2) relative humidity of 75% ± 1% at room temperature; The samples were maintained under these conditions for 10 days. Sampling was performed on day 0 and day 10, followed by HPLC analysis.
# HPLC analysis was performed on day 0 and day 10.
# Samples were collected and subjected to HPLC analysis.
# [2] = format: physicochemical; details: Water, 25°C ± 2°C
# Method: An appropriate amount of the test substance was accurately weighed And placed under conditions of 25°C ± 2°C. Different solvents were added in suitable quantities, and the mixture was vigorously shaken for 30 seconds every 5 minutes, and the dissolution status was observed over a period of 30 minutes. […]
# [3] = Stability test (high humidity, light, high temperature, high temperature stress; HPLC); format: physicochemical; remark: listed apart in the source
# [4] = Pharmacokinetics and bioavailability test in beagle dogs (Test Example 3); format: in vivo; details: for bioavailability: absolute oral bioavailability
# Method: Six healthy male beagle dogs were randomly divided into three groups, with two dogs in each group. […] Blood samples were collected from the forelimb vein of the dogs before and at various time points after administration. Plasma drug concentrations at different times were measured by LC-MS/MS. Pharmacokinetic parameters and the absolute oral bioavailability were calculated using WinNonlin7.0 software.
# [5] = Pharmacokinetics and bioavailability test in beagle dogs (Test Example 4); format: in vivo
# Method: Experimental method: Six healthy beagle dogs were randomly divided into two groups, with two dogs (one female and one male) in the first group, and four dogs (two females and two males) in the second group. […] Blood samples were collected from the forelimb veins of beagle dogs at various time points before and after administration. Plasma was obtained by centrifugation, and drug concentrations in plasma at different time points were measured using LC-MS/MS. Pharmacokinetic parameters and the absolute oral bioavailability were calculated using WinNonlin8.0 software.
# [6] = target: calcium channel receptors; details: no significant affinity; cited from earlier work
# muscarinic receptors = details: no significant affinity; cited from earlier work
# 5-HT2B receptors = 5-HT2B receptors (Homo sapiens, UniProt P41595); details: no significant affinity; cited from earlier work
# adrenergic receptors = details: no significant affinity; cited from earlier work
# [7] = target: dopamine receptors (including D2 receptors); details: no significant affinity; cited from earlier work
# [8] = 75% High humidity for 10 days, room temperature
# [9] = 92.5% High humidity for 10 days, 25°C
# [10] = High temperature of 40 °C for 10 days
# [11] = High temperature of 60 °C for 10 days
# [12] = High temperature of 105 °C for 1 day
# [13] = Light exposure for 10 days (5000 lx ± 500 lx; UV 90 µW/cm^2)
# [14] = PO 5 mg/kg (calculated as free base), capsules, male beagle dogs, plasma
# [15] = PO 10 mg/kg (calculated based on free base), capsule
# [16] = both sexes, dog, plasma, PO 10 mg/kg (calculated based on free base), capsule
# [17] = IV 0.69 mg/kg (calculated based on free base)
# [18] = dog, in vivo, IV 0.69 mg/kg (calculated based on free base)
# Sequence of 5-HT2B receptors (P41595 whole entry): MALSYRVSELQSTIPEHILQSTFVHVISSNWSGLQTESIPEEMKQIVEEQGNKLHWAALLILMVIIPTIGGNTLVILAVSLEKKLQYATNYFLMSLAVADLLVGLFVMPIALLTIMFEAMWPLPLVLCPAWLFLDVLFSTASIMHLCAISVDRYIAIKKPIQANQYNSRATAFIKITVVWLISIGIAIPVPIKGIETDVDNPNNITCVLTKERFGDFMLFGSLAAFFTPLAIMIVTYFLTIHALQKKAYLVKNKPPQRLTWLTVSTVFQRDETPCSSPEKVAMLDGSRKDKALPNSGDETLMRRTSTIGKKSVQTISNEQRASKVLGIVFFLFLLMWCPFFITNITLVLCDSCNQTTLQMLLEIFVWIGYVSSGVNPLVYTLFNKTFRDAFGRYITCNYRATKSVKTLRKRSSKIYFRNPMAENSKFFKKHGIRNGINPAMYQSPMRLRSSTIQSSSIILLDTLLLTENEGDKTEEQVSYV
compound,measurement,setting,value
"CN1CCC(N2Cc3cc(F)ccc3CN(Cc3ccc(OC4CC4)cc3)C2=O)CC1 [Base compound, 2-(4-cyclopropyloxybenzyl)-7-fluoro-4-(1-methylpiperidin-4-yl)-1,2,4-tetrahydro-3H-benzo[e][1,3]d iazepine-3-one]",HPLC determination results of the stability,[1]; [8],97.643%
same,HPLC determination results of the stability,[1]; [9],97.703%
same,HPLC determination results of the stability,[1]; original sample (0 day),98.018%
same,Conclusion (solubility),[2],insoluble
same,HPLC determination results of the stability,[3]; [10],95.418%
same,HPLC determination results of the stability,[3]; [11],82.682%
same,HPLC determination results of the stability,[3]; [12],76.929%
same,HPLC determination results of the stability,[3]; [13],95.604%
same,AUC0-last,[4]; [14],0.0439 µg·h/mL
same,Cmax,[4]; [14],0.0102 µg/mL
same,bioavailability,"[4]; PO 5 mg/kg (calculated as free base), capsules, male beagle dogs",2.4%
"CN1CCC(N2Cc3cc(F)ccc3CN(Cc3ccc(OC4CC4)cc3)C2=O)CC1.O=C(O)CC(O)(CC(=O)O)C(=O)O [Crystalline form II, 2-(4-cyclopropyloxybenzyl)-7-fluoro-4-(1-methylpiperidin-4-yl)-1,2,4,5-tetrahydro-3H-benzo[e] [1,3]diazepine-3-one citrate]",HPLC determination results of the stability,[1]; [8],99.749%
same,HPLC determination results of the stability,[1]; [9],99.735%
same,HPLC determination results of the stability,[1]; original sample (0 day),99.839%
same,AUC_%Extrap,[5]; [15],2.12%
same,MPT0-last,[5]; [15],6.62 h
same,Rsq_adj,[5]; [15],1.00
same,AUC(0-inf),[5]; [16],6.4 µg·h/mL
same,AUC(0-t),[5]; [16],6.28 µg·h/mL
same,Cmax,[5]; [16],0.754 µg/mL
same,Tmax,[5]; [16],2.25 h
same,half-life,[5]; [16],3.96 h
same,bioavailability,"[5]; both sexes, dog, plasma, PO 10 mg/kg (calculated based on free base), capsule, absolute oral bioavailability",94.8%
same,Conclusion (solubility),[2]; citrate,Very Slightly Soluble
same,HPLC determination results of the stability,[3]; [10],99.756%
same,HPLC determination results of the stability,[3]; [11],99.723%
same,HPLC determination results of the stability,[3]; [12],99.709%
same,HPLC determination results of the stability,[3]; [13],99.762%
same,bioavailability,"[4]; dog, plasma, PO 5 mg/kg (calculated as free base), capsules, male beagle dogs, read-out: bioavailability",7.4%
same,AUC(0-t),"[4]; dog, PO 5 mg/kg (calculated as free base), capsules, male beagle dogs, plasma",0.139 µg·h/mL
same,Cmax,"[4]; dog, PO 5 mg/kg (calculated as free base), capsules, male beagle dogs, plasma, read-out: Cmax",0.0388 µg/mL
same,increase of bioavailability compared with the base compound,"[4]; oral solid dosage form, PO 5 mg/kg, beagle dogs",more than 3 times
CC(C)COc1ccc(CNC(=O)N(Cc2ccc(F)cc2)C2CCN(C)CC2)cc1 [Pimavanserin],Ki,[6],> 0.3 µM
same,Ki,muscarinic receptors,> 0.3 µM
same,Ki,5-HT2B receptors,> 0.3 µM
same,Ki,adrenergic receptors,> 0.3 µM
same,Ki,[7],> 0.3 µM
"CN1CCC(N2Cc3cc(F)ccc3CN(Cc3ccc(OC4CC4)cc3)C2=O)CC1 [citrate, 2-(4-cyclopropyloxybenzyl)-7-fluoro-4-(1-methylpiperidin-4-yl)-1,2,4-tetrahydro-3H-benzo[e][1 ,3]diazepine-3-one citrate]",AUC_%Extrap,[5]; [17],4.20%
same,MPT0-last,[5]; [17],4.41 h
same,Rsq_adj,[5]; [17],1.00
same,AUC(0-inf),[5]; [18],0.466 µg·h/mL
same,AUC(0-t),[5]; [18],0.447 µg·h/mL
same,Cmax,[5]; [18],0.22 µg/mL
same,Tmax,[5]; [18],0.08 h
same,clearance,[5]; [18],1.48 L/h/kg
same,half-life,[5]; [18],2.2 h
same,Vd,"[5]; dog, in vivo, IV 0.69 mg/kg (calculated based on free base), read-out: Vdss",2.5 L/kg
same,AUC(0-t),"[4]; dog, in vivo, IV 1 mg/kg, male beagle dogs, plasma",0.348 µg·h/mL
same,Cmax,"[4]; dog, in vivo, IV 1 mg/kg, male beagle dogs, plasma, read-out: Cmax",0.138 µg/mL
